Drawing on patent US20240059698A1 (Accutar Biotechnology Inc., priority 2022, published 2024), this text covers GI50 for 18 compounds.

Structures are written as SMILES.

Experiment [1] relates to HCC827-YVMA cells (human ERBB2 exon20 insertion mutant A775_G776ins YVMA). As to the kind of experiment: Cell growth inhibition (CellTiter-Glo), HCC827-YVMA. The settings on record: 72 h, HCC827-YVMA cells, 3 days, CellTiter-Glo, read-out: Cell growth inhibition, GI50 (nM) HCC827-YVMA. The class given is cell-based. On the procedure:
(§1) Generation of HCC827-SVD, HCC827-ASV, and HCC827-YVMA cell lines. The HCC827-SVD cell line was generated by first transducing HCC827 cells (ATCC) with lentiviral particles expressing codon-optimized human EGFR exon 20 insertion mutant D770_N771insSVD, and then selecting under 5 µg/mL puromycin treatment for a week. The resulting cells were further transduced with lentiviral particles carrying EGFR sgRNA and CAS9 to knockout the endogenous alleles of EGER and then selected under 500 µg/mL hygromycin B treatment for two weeks. The limiting dilution approach was used to subsequently generate the single clone of the HCC827-SVD stable cell line. Endogenous EGFR knockout was confirmed by Sanger sequencing of cell genomic DNA, and expression of exogenous mutant EGFR was verified by Western blot analysis.
HCC827-ASV and HCC827-YVMA cell lines were generated in a similar approach as HCC827-SVD, except that HCC827 cells (ATCC) were first transduced with lentiviral particles expressing codon-optimized human EGFR exon 20 insertion mutant V769_D770insASV and human ERBB2 exon20 insertion mutant A775_G776ins YVMA, respectively.
(§2) 2. Cell Growth Inhibition for HCC827, HCC827-SVD, HCC827-ASV, HCC827-YVMA, and A431.
(§3) HCC827(ATCC), HCC827-SVD, HCC827-ASV, and HCC827-YVMA cells were seeded in 96-well plates at 5000 cells/well in 90 μL of RPMI growth medium containing 10% FBS and 1% Penicillin Streptomycin. A431 (ATCC) cells were seeded in 96-well plates at 5000 cells/well in 90 μL of DMEM growth medium containing 10% FBS and 1% Penicillin Streptomycin. Cells were incubated at 37° C. overnight and then administered with 10 μL 10× test compounds prepared in the growth medium at various concentrations. After administration of the compounds, cells were incubated at 37° C. for 3 days. Before the CellTiter-Glo assay, the plates were equilibrated at room temperature for approximately 30 minutes. 100 ul of CellTiter-Glo reagent (Promega) was added to each well. The plates were then incubated at room temperature for 10 minutes and luminescence was recorded by the EnSight® multimode plate reader (PerkinElmer). Table 7 listed selected compounds in cellular growth assay.
In general terms: Cellular ATP, detected with luciferase, serves as a proxy for viable cell number.

Experiment [2] has as its system HCC827-SVD cells (human EGFR exon 20 insertion mutant D770_N771insSVD). The experiment can be described thus: Cell growth inhibition (CellTiter-Glo), HCC827-SVD. Format: cell-based. The following applies: 72 h, 3 days. On the procedure: as §1, §2, §3

On to `C=CC(=O)N1CCC(c2c[nH]c3ncnc(Nc4ccc(CN(C)c5cnccn5)c(Cl)c4)c23)CC1` [Compound 54, 1-(4-(4-((3-chloro-4-((methyl(pyrazin-2-yl)amino)methyl)phenyl)amino)-7H-pyrrolo[2,3-d]pyrimidin-5-yl)piperidin-1-yl)prop-2-en-1-one], for which the GI50 in experiment [1] and in experiment [2] was less than 50 nM in each case.

For the compound `C=CC(=O)N1CCC(c2c[nH]c3ncnc(Nc4ccc(OCC(=O)NC(C)C)c(Cl)c4)c23)CC1` [Compound 55, 2-(4-((5-(1-acryloylpiperidin-4-yl)-7H-pyrrolo[2,3-d]pyrimidin-4-yl)amino)-2-chlorophenoxy)-N-isopropylacetamide], the concentration for 50% growth inhibition (GI50) in experiment [1] and in experiment [2] was less than 50 nM each time.

For the compound `C=CC(=O)N1CCC(c2c[nH]c3ncnc(Nc4ccc(Oc5ccnc(NC6(C)CC6)c5)cc4F)c23)CC1` [Compound 56, 1-(4-(4-((2-fluoro-4-((2-((1-methylcyclopropyl)amino)pyridin-4-yl)oxy)phenyl)amino)-7H-pyrrolo[2,3-d]pyrimidin-5-yl)piperidin-1-yl)prop-2-en-1-one], the GI50 in experiment [1] and in experiment [2] was 200 to 1000 nM in each case.

In the case of `C=CC(=O)N1CCC(c2c[nH]c3ncnc(Nc4ccc(Oc5ccnc(N6CCC(C)(F)C6)c5)cc4F)c23)CC1` (stereo not drawn) [Compound 57, 1-[4-[4-[2-fluoro-4-[[2-(3-fluoro-3-methyl-pyrrolidin-1-yl)-4-pyridyl]oxy]anilino]-7H-pyrrolo[2,3-d]pyrimidin-5-yl]-1-piperidyl]prop-2-en-1-one], the concentration for 50% growth inhibition (GI50) in experiment [1] and in experiment [2] was 200 to 1000 nM in each case.

`C=CC(=O)N1CCC(c2c[nH]c3ncnc(Nc4ccc(Oc5ccnc(NCC(F)(F)F)c5)cc4F)c23)CC1` [Compound 58, 1-(4-(4-((2-fluoro-4-((2-((2,2,2-trifluoroethyl)amino)pyridin-4-yl)oxy)phenyl)amino)-7H-pyrrolo[2,3-d]pyrimidin-5-yl)piperidin-1-yl)prop-2-en-1-one]: the values for the concentration for 50% growth inhibition (GI50) in experiment [1] and in experiment [2] were 50 to 200 nM and 200 to 1000 nM, respectively.

For `C=CC(=O)N1CCC(c2c[nH]c3ncnc(Nc4ccc(Oc5ccnc(Nc6ncc[nH]6)c5)cc4F)c23)CC1` [Compound 59, 1-(4-(4-((4-((2-((1H-imidazol-2-yl)amino)pyridin-4-yl)oxy)-2-fluorophenyl)amino)-7H-pyrrolo[2,3-d]pyrimidin-5-yl)piperidin-1-yl)prop-2-en-1-one], the GI50 is 50 to 200 nM in experiment [1] and more than 1000 nM in experiment [2].

As to `C=CC(=O)N1CCC(c2c[nH]c3ncnc(Nc4ccc(OCc5cnn6c5CCCC6)c(Cl)c4)c23)CC1` [Compound 60, 1-(4-(4-((3-chloro-4-((4,5,6,7-tetrahydropyrazolo[1,5-a]pyridin-3-yl)methoxy)phenyl)amino)-7H-pyrrolo[2,3-d]pyrimidin-5-yl)piperidin-1-yl)prop-2-en-1-one], the values for the GI50 in experiment [1] and in experiment [2] were 200 to 1000 nM and 50 to 200 nM, respectively.

`C=CC(=O)N1CCC(c2c[nH]c3ncnc(Nc4ccc(Oc5ccnc(-n6cc(F)cn6)c5)cc4F)c23)CC1` [Compound 61, 1-(4-(4-((2-fluoro-4-((2-(4-fluoro-1H-pyrazol-1-yl)pyridin-4-yl)oxy)phenyl)amino)-7H-pyrrolo[2,3-d]pyrimidin-5-yl)piperidin-1-yl)prop-2-en-1-one]: the figures for the GI50 in experiment [1] and in experiment [2] were 200 to 1000 nM and more than 1000 nM, respectively.

For `C=CC(=O)N1CCC(c2c[nH]c3ncnc(Nc4ccc(OCc5nc(CNc6ncn(C)n6)cs5)c(Cl)c4)c23)CC1` [Compound 62, 1-(4-(4-((3-chloro-4-((4-(((1-methyl-1H-1,2,4-triazol-3-yl)amino)methyl)thiazol-2-yl)methoxy)phenyl)amino)-7H-pyrrolo[2,3-d]pyrimidin-5-yl)piperidin-1-yl)prop-2-en-1-one], the GI50 in experiment [1] is 50 to 200 nM; in experiment [2], 200 to 1000 nM.

On to `C=CC(=O)N1CCC(c2c[nH]c3ncnc(Nc4ccc(Oc5ccnc(N6C[C@H]7CCC[C@H]7C6)c5)cc4F)c23)CC1` [Compound 63, 1-(4-(4-((2-fluoro-4-((2-((3aR,6aS)-hexahydrocyclopenta[c]pyrrol-2(1H)-yl)pyridin-4-yl)oxy)phenyl)amino)-7H-pyrrolo[2,3-d]pyrimidin-5-yl)piperidin-1-yl)prop-2-en-1-one], for which the 50% growth inhibitory concentration (GI50) in experiment [1] and in experiment [2] was 200 to 1000 nM throughout.

As to `C=CC(=O)N1CCC(c2c[nH]c3ncnc(Nc4ccc(Oc5ccnc(C6CCOCC6)c5)cc4F)c23)CC1` [Compound 64, 1-(4-(4-((2-fluoro-4-((2-(tetrahydro-2H-pyran-4-yl)pyridin-4-yl)oxy)phenyl)amino)-7H-pyrrolo[2,3-d]pyrimidin-5-yl)piperidin-1-yl)prop-2-en-1-one], the concentration for 50% growth inhibition (GI50) is 200 to 1000 nM in experiment [1] and more than 1000 nM in experiment [2].

Regarding `C=CC(=O)N1CCC(c2c[nH]c3ncnc(Nc4ccc(Oc5ccnc(Nc6cccnc6)c5)cc4F)c23)CC1` [Compound 65, 1-(4-(4-((2-fluoro-4-((2-(pyridin-3-ylamino)pyridin-4-yl)oxy)phenyl)amino)-7H-pyrrolo[2,3-d]pyrimidin-5-yl)piperidin-1-yl)prop-2-en-1-one], the GI50 in experiment [1] and in experiment [2] was 200 to 1000 nM throughout.

As for `C=CC(=O)N1CCC(c2c[nH]c3ncnc(Nc4ccc(Oc5ccnc(-c6ccn(C)n6)c5)cc4F)c23)CC1` [Compound 66, 1-(4-(4-((2-fluoro-4-((2-(1-methyl-1H-pyrazol-3-yl)pyridin-4-yl)oxy)phenyl)amino)-7H-pyrrolo[2,3-d]pyrimidin-5-yl)piperidin-1-yl)prop-2-en-1-one], the GI50 in experiment [1] was 50 to 200 nM; in experiment [2], 200 to 1000 nM.

`C=CC(=O)N1CCC(c2c[nH]c3ncnc(Nc4ccc(OCc5nnc[nH]5)c(Cl)c4)c23)CC1` [Compound 67, 1-(4-(4-((4-((4H-1,2,4-triazol-3-yl)methoxy)-3-chlorophenyl)amino)-7H-pyrrolo[2,3-d]pyrimidin-5-yl)piperidin-1-yl)prop-2-en-1-one]: the concentration for 50% growth inhibition (GI50) in experiment [1] and in experiment [2] was 200 to 1000 nM each time.

As to `C=CC(=O)N1CCC(c2c[nH]c3ncnc(Nc4ccc(OCc5cnc6n5CCCC6)c(Cl)c4)c23)CC1` [Compound 68, 1-(4-(4-((3-chloro-4-((5,6,7,8-tetrahydroimidazo[1,2-a]pyridin-3-yl)methoxy)phenyl)amino)-7H-pyrrolo[2,3-d]pyrimidin-5-yl)piperidin-1-yl)prop-2-en-1-one], the GI50 in experiment [1] and in experiment [2] was less than 50 nM in each case.

On to `C=CC(=O)N1CCC(c2c[nH]c3ncnc(Nc4ccc(CNc5ccccn5)cc4F)c23)CC1` [Compound 69, 1-(4-(4-((2-fluoro-4-((pyridin-2-ylamino)methyl)phenyl)amino)-7H-pyrrolo[2,3-d]pyrimidin-5-yl)piperidin-1-yl)prop-2-en-1-one], for which the concentration for 50% growth inhibition (GI50) in experiment [1] and in experiment [2] was less than 50 nM in each case.

As for `C=CC(=O)N1CCC(c2c[nH]c3ncnc(Nc4ccc(C(=O)Nc5ccccn5)cc4F)c23)CC1` [Compound 70, 4-((5-(1-acryloylpiperidin-4-yl)-7H-pyrrolo[2,3-d]pyrimidin-4-yl)amino)-3-fluoro-N-(pyridin-2-yl)benzamide], the GI50 in experiment [1] was 50 to 200 nM; in experiment [2], less than 50 nM.

For `C=CC(=O)N1CCC(c2c[nH]c3ncnc(Nc4ccc(OCc5cnccc5OC)c(Cl)c4)c23)CC1` [Compound 71, 1-(4-(4-((3-chloro-4-((4-methoxypyridin-3-yl)methoxy)phenyl)amino)-7H-pyrrolo[2,3-d]pyrimidin-5-yl)piperidin-1-yl)prop-2-en-1-one], the 50% growth inhibitory concentration (GI50) in experiment [1] and in experiment [2] was less than 50 nM each time.

As a reminder, the GI50 is the concentration that inhibits growth by half.
